Source: patent US20160159789A1, “SUBSTITUTED PYRAZOLOPYRIDINES” (BAYER PHARMA AKTIENGESELLSCHAFT, priority 2013, published 2016)

Molecular target: T1, human full-length MKNK1 (Homo sapiens, UniProt Q9BUB5, T385D)
T1 construct: purchased Carna Biosciences 02-145; host or cells: insect cells (baculovirus expression system)
Test: MKNK1 kinase high ATP assay (TR-FRET)
Type: biochemical
Conditions: high ATP (2 mM final), 15 min preincubation with enzyme, GST-MKNK1 (T344D)
Procedure: MKNK1-inhibitory activity at high ATP of compounds of the present invention after their preincubation with MKNK1 was quantified employing the TR-FRET-based MKNK1 high ATP assay as described in the following paragraphs.
A recombinant fusion protein of Glutathione-S-Transferase (GST, N-terminally) and human full-length MKNK1 (amino acids 1-424 and T344D of accession number BAA 19885.1), expressed in insect cells using baculovirus expression system and purified via glutathione sepharose affinity chromatography, was purchased from Carna Biosciences (product no 02-145) and used as enzyme. As substrate for the kinase reaction the biotinylated peptide biotin-Ahx-IKKRKLTRRKSLKG (C-terminus in amide form) was used, which can be purchased e.g. from the company Biosyntan (Berlin-Buch, Germany).
For the assay 50 nL of a 100 fold concentrated solution of the test compound in DMSO was pipetted into a black low volume 384 well microtiter plate (Greiner Bio-One, Frickenhausen, Germany), 2 μL of a solution of MKNK1 in aqueous assay buffer [50 mM HEPES pH 7.5, 5 mM MgCl2, 1.0 mM dithiothreitol, 0.005% (v/v) Nonidet-P40 (Sigma)] was added and the mixture was incubated for 15 min at 22° C. to allow pre-binding of the test compounds to the enzyme before the start of the kinase reaction. Then the kinase reaction was started by the addition of 3 μL of a solution of adenosine-tri-phosphate (ATP, 3.3 mM=> final conc. in the 5 μL assay volume is 2 mM) and substrate (0.1 μM=> final conc. in the 5 μL assay volume is 0.06 μM) in assay buffer and the resulting mixture was incubated for a reaction time of 30 min at 22° C. The concentration of MKNK1 was adjusted depending of the activity of the enzyme lot and was chosen appropriate to have the assay in the linear range, typical concentrations were in the range of 0.003 μg/mL. The reaction was stopped by the addition of 5 μL of a solution of TR-FRET detection reagents (5 nM streptavidine-XL665 [Cisbio Bioassays, Codolet, France] and 1 nM anti-ribosomal protein S6 (pSer236)-antibody from Invitrogen [#44921G] and 1 nM LANCE EU-W1024 labeled ProteinG [Perkin-Elmer, product no. AD0071]) in an aqueous EDTA-solution (100 mM EDTA, 0.1% (w/v) bovine serum albumin in 50 mM HEPES pH 7.5).
The resulting mixture was incubated for 1 h at 22° C. to allow the formation of complex between the phosphorylated biotinylated peptide and the detection reagents. Subsequently the amount of phosphorylated substrate was evaluated by measurement of the resonance energy transfer from the Eu-chelate to the streptavidine-XL. Therefore, the fluorescence emissions at 620 nm and 665 nm after excitation at 350 nm were measured in a TR-FRET reader, e.g. a Rubystar (BMG Labtechnologies, Offenburg, Germany) or a Viewlux (Perkin-Elmer). The ratio of the emissions at 665 nm and at […] was taken as the measure for the amount of phosphorylated substrate. The data were normalised (enzyme reaction without inhibitor=0% inhibition, all other assay components but no enzyme=100% inhibition).

T1 sequence (Q9BUB5 1-424 isoform Q9BUB5-2 T344D): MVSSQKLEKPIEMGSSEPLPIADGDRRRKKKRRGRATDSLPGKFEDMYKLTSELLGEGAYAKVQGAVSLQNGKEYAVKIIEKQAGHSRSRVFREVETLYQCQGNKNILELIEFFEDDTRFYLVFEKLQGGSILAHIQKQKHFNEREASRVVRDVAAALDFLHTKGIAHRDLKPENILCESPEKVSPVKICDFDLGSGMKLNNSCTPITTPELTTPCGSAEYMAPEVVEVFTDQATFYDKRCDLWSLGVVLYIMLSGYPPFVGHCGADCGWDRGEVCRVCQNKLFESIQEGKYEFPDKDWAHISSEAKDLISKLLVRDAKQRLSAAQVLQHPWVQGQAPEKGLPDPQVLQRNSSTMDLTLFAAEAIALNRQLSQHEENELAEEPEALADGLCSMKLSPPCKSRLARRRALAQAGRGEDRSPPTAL

| SMILES | IC50 |
| --- | --- |
| CN(C)C(=O)[C@H]1CCc2c(sc3ncnc(Nc4cnc5[nH]ncc5c4)c23)C1 [Example 59, (7S)—N,N-Dimethyl-4-(1H-pyrazolo[3,4-b]pyridin-5-ylamino)-5,6,7,8-tetrahydro[1]benzothieno[2,3-d]pyrimidine-7-carboxamide] | 2.3 nM |
| CN(C)C(=O)[C@H]1CCc2c(sc3ncnc(Nc4cc5cn[nH]c5cn4)c23)C1 [Example 60, (7S)—N,N-Dimethyl-4-(1H-pyrazolo[3,4-c]pyridin-5-ylamino)-5,6,7,8-tetrahydro[1]benzothieno[2,3-d]pyrimidine-7-carboxamide] | 7.7 nM |
| O=C(c1[nH]c2ncnc(Nc3cnc4[nH]ncc4c3)c2c1Br)N1CCCCC1 [Example 61, [5-Bromo-4-(1H-pyrazolo[3,4-b]pyridin-5-ylamino)-7H-pyrrolo[2,3-d]pyrimidin-6-yl](piperidin-1-yl)methanone] | 120 nM |
| COc1nc2[nH]ncc2cc1Nc1ncnc2[nH]c(C(=O)N(C)CCN(C)C)c(Br)c12 [Example 62, 5-Bromo-N-[2-(dimethylamino)ethyl]-4-[(6-methoxy-1H-pyrazolo[3,4-b]pyridin-5-yl)amino]-N-methyl-7H-pyrrolo[2,3-d]pyrimidine-6-carboxamide] | 12 nM |
| CN(C)CCN(C)C(=O)c1[nH]c2ncnc(Nc3cc4cn[nH]c4nc3O)c2c1Br [Example 63, 5-Bromo-N-[2-(dimethylamino)ethyl]-4-[(6-hydroxy-1H-pyrazolo[3,4-b]pyridin-5-yl)amino]-N-methyl-7H-pyrrolo[2,3-d]pyrimidine-6-carboxamide] | 14.6 nM |
| COc1nc2[nH]ncc2cc1Nc1ncnc2[nH]c(C(=O)N3CCC(N(C)C)CC3)c(Br)c12 [Example 64, {5-Bromo-4-[(6-methoxy-1H-pyrazolo[3,4-b]pyridin-5-yl)amino]-7H-pyrrolo[2,3-d]pyrimidin-6-yl}[4-(dimethylamino)piperidin-1-yl]methanone] | 4.2 nM |
| CN(C)C1CCN(C(=O)c2[nH]c3ncnc(Nc4cc5cn[nH]c5nc4O)c3c2Br)CC1 [Example 65] | 2.8 nM |
| COc1nc2[nH]ncc2cc1Nc1ncnc2[nH]c(C(=O)N3CCOC[C@H]3C)c(Br)c12 [Example 66] | 8.3 nM |
| COc1nc2[nH]ncc2cc1Nc1ncnc2[nH]c(C(=O)N3CCOCC3)c(Br)c12 [Example 67, {5-Bromo-4-[(6-methoxy-1H-pyrazolo[3,4-b]pyridin-5-yl)amino]-7H-pyrrolo[2,3-d]pyrimidin-6-yl}(morpholin-4-yl)methanone] | 15.2 nM |
| O=C(c1[nH]c2ncnc(Nc3cc4cn[nH]c4nc3O)c2c1Br)N1CCOCC1 [Example 68] | 10.1 nM |
| CN(C)C1CCN(C(=O)c2[nH]c3ncnc(Nc4cc5cn[nH]c5cn4)c3c2Br)CC1 [Example 69, [5-Bromo-4-(1H-pyrazolo[3,4-c]pyridin-5-ylamino)-7H-pyrrolo[2,3-d]pyrimidin-6-yl][4-(dimethylamino)piperidin-1-yl]methanone] | 19.8 nM |
| C[C@@H]1COCCN1C(=O)c1[nH]c2ncnc(Nc3cc4cn[nH]c4cn3)c2c1Br [Example 70, [5-Bromo-4-(1H-pyrazolo[3,4-c]pyridin-5-ylamino)-7H-pyrrolo[2,3-d]pyrimidin-6-yl][(3R)-3-methylmorpholin-4-yl]methanone] | 40.7 nM |
| O=C(c1[nH]c2ncnc(Nc3cc4cn[nH]c4cn3)c2c1Br)N1CCOCC1 [Example 71, [5-Bromo-4-(1H-pyrazolo[3,4-c]pyridin-5-ylamino)-7H-pyrrolo[2,3-d]pyrimidin-6-yl](morpholin-4-yl)methanone] | 43.2 nM |
| O=C(c1[nH]c2ncnc(Nc3cc4cn[nH]c4cn3)c2c1Br)N1CCCCC1 [Example 72, [5-Bromo-4-(1H-pyrazolo[3,4-c]pyridin-5-ylamino)-7H-pyrrolo[2,3-d]pyrimidin-6-yl](piperidin-1-yl)methanone] | 16 nM |
| C[C@@H]1COCCN1C(=O)c1[nH]c2ncnc(Nc3cnc4[nH]ncc4c3)c2c1Br [Example 73, [5-Bromo-4-(1H-pyrazolo[3,4-b]pyridin-5-ylamino)-7H-pyrrolo[2,3-d]pyrimidin-6-yl][(3R)-3-methylmorpholin-4-yl]methanone] | 144 nM |
| O=C(c1[nH]c2ncnc(Nc3cnc4[nH]ncc4c3)c2c1Br)N1CCOCC1 [Example 74, [5-Bromo-4-(1H-pyrazolo[3,4-b]pyridin-5-ylamino)-7H-pyrrolo[2,3-d]pyrimidin-6-yl](morpholin-4-yl)methanone] | 140 nM |
| C[C@H]1COCCN1C(=O)c1[nH]c2ncnc(Nc3cnc4[nH]ncc4c3)c2c1Br [Example 75, [5-Bromo-4-(1H-pyrazolo[3,4-b]pyridin-5-ylamino)-7H-pyrrolo[2,3-d]pyrimidin-6-yl][(3S)-3-methymorpholin-4-yl]methanone] | 61 nM |
| CN(C)C(=O)CNC(=O)c1cc2c(Nc3cc4cn[nH]c4cn3)ncnc2[nH]1 [Example 76, N-[2-(Dimethylamino)-2-oxoethyl]-4-(1H-pyrazolo[3,4-c]pyridin-5-ylamino)-7H-pyrrolo[2,3-d]pyrimidine-6-carboxamide] | 71.5 nM |
| CN(C)CCN(C)C(=O)c1cc2c(Nc3cc4cn[nH]c4cn3)ncnc2[nH]1 [Example 77, N-[2-(Dimethylamino)ethyl]-N-methyl-4-(1H-pyrazolo[3,4-c]pyridin-5-ylamino)-7H-pyrrolo[2,3-d]pyrimidine-6-carboxamide] | 23.1 nM |
| CN(CCN(C)C(=O)c1cc2c(Nc3cc4cn[nH]c4cn3)ncnc2[nH]1)Cc1ccccc1 [Example 78, N-{2-[Benzyl(methyl)amino]ethyl}-N-methyl-4-(1H-pyrazolo[3,4-c]pyridin-5-ylamino)-7H-pyrrolo[2,3-d]pyrimidine-6-carboxamide] | 7.4 nM |
| c1ccc(CCc2nc3c(Nc4cc5cn[nH]c5cn4)ncnc3s2)cc1 [Example 79, 2-(2-Phenylethyl)-N-(1H-pyrazolo[3,4-c]pyridin-5-yl)[1,3]thiazolo[5,4-d]pyrimidin-7-amine] | 1350 nM |
| CC(C)NC(=O)[C@H]1CCc2c(sc3ncnc(Nc4cc5cn[nH]c5cn4)c23)C1 [Example 80, (7S)—N-(Propan-2-yl)-4-(1H-pyrazolo[3,4-c]pyridin-5-ylamino)-5,6,7,8-tetrahydro[1]benzothieno[2,3-d]pyrimidine-7-carboxamide] | 23.9 nM |
| CCCN(C)C(=O)[C@H]1CCc2c(sc3ncnc(Nc4cc5cn[nH]c5cn4)c23)C1 [Example 81, (7S)—N-Methyl-N-propyl-4-(1H-pyrazolo[3,4-c]pyridin-5-ylamino)-5,6,7,8-tetrahydro[1]benzothieno[2,3-d]pyrimidine-7-carboxamide] | 16.1 nM |
| N#CC1CN(C(=O)[C@H]2CCc3c(sc4ncnc(Nc5cc6cn[nH]c6cn5)c34)C2)C1 [Example 82, 1-{[(7S)-4-(1H-Pyrazolo[3,4-c]pyridin-5-ylamino)-5,6,7,8-tetrahydro[1]benzothieno[2,3-d]pyrimidin-7-yl]carbonyl}azetidine-3-carbonitrile] | 3.2 nM |
| O=C([C@H]1CCc2c(sc3ncnc(Nc4cc5cn[nH]c5cn4)c23)C1)N1CC2(COC2)C1 [Example 83, 2-Oxa-6-azaspiro[3.3]hept-6-yl[(7S)-4-(1H-pyrazolo[3,4-c]pyridin-5-ylamino)-5,6,7,8-tetrahydro[1]benzothieno[2,3-d]pyrimidin-7-yl]methanone] | 6.9 nM |
| CN(C)[C@@H]1CCN(C(=O)[C@H]2CCc3c(sc4ncnc(Nc5cc6cn[nH]c6cn5)c34)C2)C1 [Example 84, [(3R)-3-(Dimethylamino)pyrrolidin-1-yl][(7S)-4-(1H-pyrazolo[3,4-c]pyridin-5-ylamino)-5,6,7,8-tetrahydro[1]benzothieno[2,3-d]pyrimidin-7-yl]methanone] | 3.6 nM |
| CN(C)[C@H]1CCN(C(=O)[C@H]2CCc3c(sc4ncnc(Nc5cc6cn[nH]c6cn5)c34)C2)C1 [Example 85, [(3S)-3-(Dimethylamino)pyrrolidin-1-yl][(7S)-4-(1H-pyrazolo[3,4-c]pyridin-5-ylamino)-5,6,7,8-tetrahydro[1]benzothieno[2,3-d]pyrimidin-7-yl]methanone] | 4.5 nM |
